ChEMBL document CHEMBL3885861, “Open TG-GATES”

Organism: Rattus norvegicus
Experiment: Open TG-GATES - Regimen: Single
Assay type: toxicity, organism-based, Sprague-Dawley
Parameters: regimen Single, gender Male, age 6 weeks
Settings: in vivo, po, 100 mg/kg, route gavage, dose level High; for APTT / Bas / Eos / Fbg / Hb / Ht / Lym / MCH / MCHC / MCV / Mono / Neu / PT / Plat / RBC / Ret / WBC: tissue Blood; for KIDNEY_L / KIDNEY_R / KIDNEY_TOTAL: tissue Kidney; for LIVER: tissue Liver; for A/G / ALP / ALT / AST / BUN / CRE / Ca / Cl / DBIL / GLC / IP / K / LDH / Na / PL / RALB / TBIL / TC / TG / TP / gamma-GTP: tissue Plasma

CN(C)CCN(Cc1cccs1)c1ccccn1
TERMINAL_BW (3 h): 184.9 g | APTT (3 h): 21.5 s | Bas (3 h): 0% | Eos (3 h): 0.8% | Fbg (3 h): 290.4 mg/dL | Hb (3 h): 13.2 g/dL | Ht (3 h): 40.2% | Lym (3 h): 74% | MCH (3 h): 20.6 pg | MCHC (3 h): 32.9% | MCV (3 h): 62.8 fL | Mono (3 h): 2% | Neu (3 h): 22.2% | PT (3 h): 16.3 s | Plat (3 h): 121.5 x10_4/uL | RBC (3 h): 640.8 x10_4/ul | Ret (3 h): 7.2% | WBC (3 h): 60.8 x10_2/uL | KIDNEY_L (3 h): 0.8 g | KIDNEY_R (3 h): 0.9 g | KIDNEY_TOTAL (3 h): 1.7 g | LIVER (3 h): 8 g | A/G (3 h): 1.2 | ALP (3 h): 1601.8 IU/L | ALT (3 h): 54.6 IU/L | AST (3 h): 82.2 IU/L | BUN (3 h): 10.8 mg/dL | CRE (3 h): 0.1 mg/dL | Ca (3 h): 10.3 mg/dL | Cl (3 h): 106.6 meq/L | DBIL (3 h): 0.002 mg/dL | GLC (3 h): 185 mg/dL | IP (3 h): 8.3 mg/dL | K (3 h): 4.3 meq/L | LDH (3 h): 258.8 IU/L | Na (3 h): 142.4 meq/L | PL (3 h): 121.4 mg/dL | RALB (3 h): 2.9 g/dL | TBIL (3 h): 0.012 mg/dL | TC (3 h): 69.8 mg/dL | TG (3 h): 36 mg/dL | TP (3 h): 5.4 g/dL | gamma-GTP (3 h): 1 IU/L | TERMINAL_BW (6 h): 183.8 g | APTT (6 h): 21.3 s | Bas (6 h): 0% | Eos (6 h): 0.4% | Fbg (6 h): 282.2 mg/dL | Hb (6 h): 13.1 g/dL | Ht (6 h): 39.5% | Lym (6 h): 76% | MCH (6 h): 21.6 pg | MCHC (6 h): 33.3% | MCV (6 h): 64.8 fL | Mono (6 h): 2.4% | Neu (6 h): 20.6% | PT (6 h): 16.6 s | Plat (6 h): 120.5 x10_4/uL | RBC (6 h): 610 x10_4/ul | Ret (6 h): 8.4% | WBC (6 h): 73.4 x10_2/uL | KIDNEY_L (6 h): 0.8 g | KIDNEY_R (6 h): 0.8 g | KIDNEY_TOTAL (6 h): 1.7 g | LIVER (6 h): 7.5 g | A/G (6 h): 1.1 | ALP (6 h): 1538 IU/L | ALT (6 h): 51.2 IU/L | AST (6 h): 90.2 IU/L | BUN (6 h): 14.6 mg/dL | CRE (6 h): 0.2 mg/dL | Ca (6 h): 10.5 mg/dL | Cl (6 h): 107.4 meq/L | DBIL (6 h): 0.004 mg/dL | GLC (6 h): 170.2 mg/dL | IP (6 h): 9.4 mg/dL | K (6 h): 4.5 meq/L | LDH (6 h): 259.2 IU/L | Na (6 h): 141.8 meq/L | PL (6 h): 110 mg/dL | RALB (6 h): 2.8 g/dL | TBIL (6 h): 0.02 mg/dL | TC (6 h): 64.8 mg/dL | TG (6 h): 33.4 mg/dL | TP (6 h): 5.2 g/dL | gamma-GTP (6 h): 1 IU/L | TERMINAL_BW (9 h): 183.7 g | APTT (9 h): 21.3 s | Bas (9 h): 0% | Eos (9 h): 0.8% | Fbg (9 h): 284.6 mg/dL | Hb (9 h): 13.2 g/dL | Ht (9 h): 39.6% | Lym (9 h): 72.2% | MCH (9 h): 21.1 pg | MCHC (9 h): 33.3% | MCV (9 h): 63.5 fL | Mono (9 h): 3.6% | Neu (9 h): 22.6% | PT (9 h): 16.2 s | Plat (9 h): 122.3 x10_4/uL | RBC (9 h): 624.2 x10_4/ul | Ret (9 h): 7.6% | WBC (9 h): 71.6 x10_2/uL | KIDNEY_L (9 h): 0.8 g | KIDNEY_R (9 h): 0.9 g | KIDNEY_TOTAL (9 h): 1.7 g | LIVER (9 h): 7.8 g | A/G (9 h): 1.2 | ALP (9 h): 1538 IU/L | ALT (9 h): 60.2 IU/L | AST (9 h): 100.6 IU/L | BUN (9 h): 11 mg/dL | CRE (9 h): 0.1 mg/dL | Ca (9 h): 10.1 mg/dL | Cl (9 h): 107.6 meq/L | DBIL (9 h): 0 mg/dL | GLC (9 h): 172.8 mg/dL | IP (9 h): 9.7 mg/dL | K (9 h): 4.2 meq/L | LDH (9 h): 233.6 IU/L | Na (9 h): 141.8 meq/L | PL (9 h): 117 mg/dL | RALB (9 h): 2.9 g/dL | TBIL (9 h): 0.022 mg/dL | TC (9 h): 68 mg/dL | TG (9 h): 35 mg/dL | TP (9 h): 5.3 g/dL | gamma-GTP (9 h): 1.2 IU/L | TERMINAL_BW (24 h): 193.3 g | APTT (24 h): 20.8 s | Bas (24 h): 0% | Eos (24 h): 0.8% | Fbg (24 h): 275.2 mg/dL | Hb (24 h): 13 g/dL | Ht (24 h): 39.4% | Lym (24 h): 73.2% | MCH (24 h): 20.7 pg | MCHC (24 h): 32.9% | MCV (24 h): 62.9 fL | Mono (24 h): 2.8% | Neu (24 h): 22.2% | PT (24 h): 17.3 s | Plat (24 h): 114.4 x10_4/uL | RBC (24 h): 627 x10_4/ul | Ret (24 h): 7% | WBC (24 h): 61.6 x10_2/uL | KIDNEY_L (24 h): 0.8 g | KIDNEY_R (24 h): 0.9 g | KIDNEY_TOTAL (24 h): 1.7 g | LIVER (24 h): 9.1 g | A/G (24 h): 1.3 | ALP (24 h): 1813.6 IU/L | ALT (24 h): 68.4 IU/L | AST (24 h): 109.6 IU/L | BUN (24 h): 16 mg/dL | CRE (24 h): 0.2 mg/dL | Ca (24 h): 10.7 mg/dL | Cl (24 h): 106.6 meq/L | DBIL (24 h): 0.004 mg/dL | GLC (24 h): 172 mg/dL | IP (24 h): 7.8 mg/dL | K (24 h): 4.4 meq/L | LDH (24 h): 260.2 IU/L | Na (24 h): 143.2 meq/L | PL (24 h): 136 mg/dL | RALB (24 h): 2.9 g/dL | TBIL (24 h): 0.01 mg/dL | TC (24 h): 70.8 mg/dL | TG (24 h): 65.2 mg/dL | TP (24 h): 5.2 g/dL | gamma-GTP (24 h): 1 IU/L
